# Measurements reported in patent US10046000B2, “Use of 2-methylene-19-nor-(20S)-1α,25-Dihydroxyvitamin D3 to treat and prevent secondary hyperparathyroidism in a subject having renal failure” (Wisconsin Alumni Research Foundation, priority 2012, dated 2018).
# Where two headings read alike, the source gives them in different places.
# Legend:
# bovine parathyroid cells = conditions: cited from earlier work; for suppression of PTH secretion compared with 1,25-(OH)2D3: cultured bovine parathyroid cells
# serum calcium = conditions: rat, in vivo; cited from earlier work
# [1] = tested on: MRL/MpJ-FAS^lpr (MRL/pr) mouse model; conditions: 300 ng per day through the diet; cited from earlier work
# [2] = tested on: rats with renal insufficiency; conditions: four times during eight days, cited from earlier work
# [3] = tested on: intestinal calcium transport; conditions: in vivo; cited from earlier work
# [4] = tested on: bone calcium mobilization; conditions: in vivo; cited from earlier work
# postmenopausal women = test: Phase 1B trial, oral administration of 2MD to postmenopausal women; type: in vivo, human; conditions: for reduction of serum PTH levels: oral
# uremic rat model [5] = type: in vivo; conditions: for effect on serum phosphorus levels: nephrectomized rats
# Source text: (§1) Nephrectomy Rat Model. Disease Induction. Weanling, male Sprague-Dawley rats were obtained from Harlan (Madison, Wis.). Following a 10-13 day acclimation period, the animals had two-thirds of one kidney removed. After a week, the other entire kidney was removed. The animals were then switched from a chow diet to a purified rodent diet (Suda et al., Purified Rodent Diet-Diet 11) containing 0.6% Ca and 0.9% phosphorus and fat soluble vitamins A, D, E and K. Water and diet were provided ad libitum.
# (§2) Animal Husbandry. Animals were housed in suspended, plastic shoe-box style cages with corn cob bedding (prior to surgery) or in stainless steel, wire-bottom cages (approximately one week after surgery). The animal rooms were maintained at a temperature of 68 to 72° F. and a relative humidity of 25 to 75%. The holding rooms were set to provide 12 hours of light per day.
# (§3) Treatment Groups. Approximately four weeks after the second surgery, animals were assigned to treatment groups (14-15 animals/group) so that each group had the same average PTH level.
# (§4) Dose Preparation (Vehicle Formulation). The negative control material was prepared by volumetrically measuring ethanol (5%) and Neobee oil, mixing and then placing in storage at 2 to 8° C.
# Dose Preparation (2MD Formulation). 2MD formulations (DP001, Sigma Aldrich Fine Chemicals, Madison, Wis.) were prepared by first determining the concentration of an ethanol stock solution using UV spectrophotometry (extinction coefficient=42,000; λmax=252 nm). The solutions were then volumetrically added to Neobee oil so that there was no more than 5% ethanol in the final solution. If necessary, additional ethanol was added to bring the final ethanol amount to 5%. The solution was mixed and stored at 2 to 8° C.
# Dose Administration Method. Both vehicle and 2MD were administered orally to the back of the tongue at 0.5 ml/kg body weight once daily for 8 weeks, or intraperitoneally three times per week for 4 weeks.
# Serum Parathyroid Hormone (PTH) Levels. By “serum PTH levels” we mean the amount of PTH released by the parathyroid gland. PTH is the most important regulator of the body's calcium and phosphorus levels, and is controlled by the level of calcium in the blood. Low blood calcium levels cause increased PTH to be released, while high blood calcium levels inhibit PTH release. Normal values are 10-55 picograms per milliliter ([…]). Four weeks after surgery and 4 and 8 weeks after treatment initiation, blood was collected from the tail artery and the concentration of bioactive serum PTH was measured using the rat BioActive Intact PTH ELISA Kit from Immutopics, Inc. (San Clemente, Calif.).
# Serum Calcium Analysis. Four weeks following surgery and 4 and 8 weeks after treatment started, blood was collected from the tail artery of each experimental animal. The blood was allowed to coagulate at room temperature and then centrifuged at 3000×g for 15 minutes. The serum was transferred to a polypropylene tube and stored frozen at −20° C. The level of calcium was determined by diluting the serum into 0.1% lanthum chloride and measuring the absorbance on an atomic absorption spectrophotometer (Perkin Elmer Model 3110, Shelton, Conn.).
# Phosphorus Assay. Four weeks after surgery and 8 weeks after treatment started, blood was collected from the tail artery of each experimental animal. The blood was allowed to coagulate at room temperature and then centrifuged at 3000×g for 15 minutes. The serum was transferred to a polypropylene tube and stored frozen at −20° C. The level of phosphorus was determined using a clinical analyzer (Pentra 400, Horiba ABX Diagnostics—France; UV method using phosphomolybdate).
# Creatinine Assay. Measuring serum creatinine levels is a useful and inexpensive method of evaluating renal dysfunction. Creatinine is a non-protein waste product of phosphocreatinine metabolism by skeletal muscle tissue. Creatinine production is continuous and is proportional to muscle mass. […]
# uremic rat model [6] = test: Uremic rat model, intraperitoneal (ip) administration of 2MD; type: in vivo
# Source text: as §1, §2, §3, §4
# Dose Preparation (2MD Formulation). 2MD formulations (DP001, Sigma Aldrich Fine Chemicals, Madison, Wis.) were prepared by first determining the concentration of an ethanol stock solution using UV spectrophotometry (extinction coefficient=42,000; λmax=252 nm). […]
# Serum Parathyroid Hormone (PTH) Levels. […] Four weeks after surgery and 4 and 8 weeks after treatment initiation, blood was collected from the tail artery and the concentration of bioactive serum PTH was measured using the rat BioActive Intact PTH ELISA Kit from Immutopics, Inc. (San Clemente, Calif.).
# Serum Calcium Analysis. […] The level of calcium was determined by diluting the serum into 0.1% lanthum chloride and measuring the absorbance on an atomic absorption spectrophotometer (Perkin Elmer Model 3110, Shelton, Conn.). […]
# uremic dogs = conditions: cited from earlier work
# uremic rats = conditions: cited from earlier work
# PTH mRNA = conditions: in vivo; cited from earlier work
compound,measurement,setting,value
"C=C1/C(=C\C=C2/CCC[C@]3(C)C([C@H](C)CC#CC(C)(C)O)=CC[C@@H]23)C[C@@H](O)C[C@@H]1O [1,25-(OH)2-16-ene-23-yne-D3]","suppression of PTH secretion compared with 1,25-(OH)2D3",bovine parathyroid cells,"nearly as effective as 1,25-(OH)2D3"
"C=C1C(=CC=C2CCCC3(C)C2CCC3C(C)CCCCCC(C)(C)O)CC(O)CC1O (stereo not drawn) [1,25-(OH)2-24-dihomo-D3]","suppression of PTH secretion compared with 1,25-(OH)2D3",bovine parathyroid cells,"nearly as effective as 1,25-(OH)2D3"
"C=C1C(=CC=C2CCCC3(C)C2CCC3C(C)C=CCCCCC(C)(C)O)CC(O)CC1O (stereo not drawn) [1,25-(OH)2-24-trihomo-22-ene-D3]","suppression of PTH secretion compared with 1,25-(OH)2D3",bovine parathyroid cells,"nearly as effective as 1,25-(OH)2D3"
"C=C1/C(=C\C=C2/CCC[C@]3(C)[C@@H]([C@H](C)CCCC(C)(C)O)CC[C@@H]23)C[C@@H](O)C[C@@H]1O [1,25-(OH)2D3, 1α,25-dihydroxyvitamin D3]",dose that increased serum calcium to the same magnitude,serum calcium,10 ng/rat/10 days
same,hypercalcemia,[1],severe hypercalcemia always accompanied this treatment
same,proteinuria,[1],completely prevents proteinuria
same,effect on serum calcium and phosphorus,[2]; 8 ng dose,induced hypercalcemia and hyperphosphatemia
same,effect on pre-pro-PTH mRNA and PTH secretion,"[2]; 2, 4 and 8 ng",suppressed pre-pro-PTH mRNA and PTH secretion
same,dose at which the decrease of pre-pro-PTH mRNA and PTH secretion was statistically significant,[2],8 ng
"C=C1[C@H](O)CC(=C/C=C2\CCC[C@@]3(C)C2CCC3[C@@H](C)CCCC(C)(C)O)C[C@H]1O (stereo partly drawn) [2MD, 2-methylene-19-nor-(20S)-1α,25-dihydroxyvitamin D3]",intestinal calcium transport activity,[3],modest increase in intestinal calcium transport activity
same,bone calcium mobilization activity,[4],"10-100 times that of 1α,25-(OH)2D3"
same,serum calcium levels,postmenopausal women; 400 ng per day,maintaining serum calcium levels within the physiologically normal range
same,reduction in serum PTH levels,"postmenopausal women; 400 ng per day, FIG. 13",> 60%
same,reduction of serum PTH levels,postmenopausal women; 110 ng once daily for 28 days,21%
same,reduction of serum PTH levels,postmenopausal women; 440 ng once daily for 28 days,67%
same,doses at which clinically significant serum calcium increases are observed,"uremic rat model [5]; male, Sprague-Dawley, rat, in vivo, po, 8 weeks",5 ng/kg bw
same,effect on serum PTH levels,"uremic rat model [5]; oral, daily doses of 1-5 ng/kg bw, FIG. 5",prevented an increase or effected a reduction in serum PTH levels
same,serum creatinine levels compared to Vehicle control animals,"uremic rat model [5]; oral, daily doses of 1-5 ng/kg bw, FIG. 11",resulted in lower serum creatinine levels
same,effect on serum phosphorus levels,"uremic rat model [5]; oral, daily doses of 1-5 ng/kg bw, FIG. 9",reduced serum phosphorus levels
same,dose at which serum calcium levels were raised,"uremic rat model [6]; ip three times per week, FIG. 3",10 ng/kg bw
same,effect on serum PTH,"uremic rat model [6]; ip, 5 ng/kg bw three times per week, FIG. 2",prevented increases in serum PTH
same,effect on circulating PTH levels,"uremic rat model [6]; ip, 10 ng/kg bw three times per week, FIG. 2",suppresses circulating PTH levels
C=C1/C(=C\C=C2/CCC[C@]3(C)[C@@H]([C@H](C)OCCC(C)(C)O)CC[C@@H]23)C[C@@H](O)C[C@@H]1O [22-oxacalcitriol],serum PTH,uremic dogs,suppress serum PTH
same,serum PTH,uremic rats,suppress serum PTH
same,suppression of PTH mRNA,PTH mRNA,could suppress PTH mRNA
same,"suppression of PTH secretion compared with 1,25-(OH)2D3",bovine parathyroid cells,"nearly as effective as 1,25-(OH)2D3"
"C[C@H](/C=C/[C@H](C)C(C)(C)O)[C@H]1CC[C@H]2/C(=C/C=C3C[C@@H](O)C[C@H](O)C3)CCC[C@]12C [Zemplar®, 19-nor-1α,25-dihydroxy-ergocalciferol]",dose that increased serum calcium to the same magnitude,serum calcium,100 ng/rat/10 days
same,changes in serum ionized calcium or serum phosphorus,"[2]; 8, 25 and 75 ng","none of the doses of 19-nor-1,25-(OH)2D2 produced statistically significant changes"
same,serum creatinine levels compared to Vehicle control animals,uremic rat model [5]; oral Zemplar,"lowered serum creatinine levels compared to Vehicle control animals, however, only at dose levels that significantly increased serum calcium"
same,effect on serum phosphorus levels,uremic rat model [5]; oral Zemplar,did not reduce serum phosphorus levels
same,duration of the effect on serum PTH,uremic rat model [5]; oral daily treatment for up to 8 weeks,the therapeutic effect was lost as the disease progressed
same,effect on serum PTH levels,"uremic rat model [5]; oral, daily doses of 30-300 ng/kg bw, FIG. 6",prevented an increase in serum PTH levels
same,suppression on PTH release,bovine parathyroid cells; 10^−7M,52%
